What all share (conditions): Compound concentration 10.0 uM
In assay [1] the target is 5-hydroxytryptamine receptor 2A (Homo sapiens) (UniProt P28223).
Assay [2] deals with Delta-type opioid receptor (Homo sapiens) (UniProt P41143).
Assay [3] deals with Muscarinic acetylcholine receptor M3 (Homo sapiens) (UniProt P20309).
The target of assay [4] is 5-hydroxytryptamine receptor 3A (Homo sapiens) (UniProt P46098).
In assay [5] the target is T1, Alpha-2A adrenergic receptor (Homo sapiens) (UniProt P08913).
T1 sequence (whole entry): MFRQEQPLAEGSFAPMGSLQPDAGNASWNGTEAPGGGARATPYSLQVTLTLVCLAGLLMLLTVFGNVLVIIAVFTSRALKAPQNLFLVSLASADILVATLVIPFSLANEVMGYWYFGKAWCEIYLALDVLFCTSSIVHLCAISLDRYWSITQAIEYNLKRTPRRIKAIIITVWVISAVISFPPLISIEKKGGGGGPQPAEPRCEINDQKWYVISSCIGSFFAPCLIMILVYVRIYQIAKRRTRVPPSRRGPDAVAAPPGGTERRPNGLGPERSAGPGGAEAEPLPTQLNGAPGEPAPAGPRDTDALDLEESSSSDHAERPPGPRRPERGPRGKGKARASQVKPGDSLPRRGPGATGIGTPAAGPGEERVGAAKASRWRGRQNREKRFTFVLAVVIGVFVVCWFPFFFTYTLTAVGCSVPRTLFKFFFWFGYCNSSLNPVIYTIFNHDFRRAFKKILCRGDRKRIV

Assay [6] concerns the target 5-hydroxytryptamine receptor 1B (Homo sapiens) (UniProt P28222).
The target of assay [7] is Sigma intracellular receptor 2 (Homo sapiens, UniProt Q5BJF2).
Assay [8] concerns the target 5-hydroxytryptamine receptor 5A (Homo sapiens) (UniProt P47898).
Assay [9] addresses T2, Alpha-2C adrenergic receptor (Homo sapiens) (UniProt P18825).
T2 sequence (whole entry): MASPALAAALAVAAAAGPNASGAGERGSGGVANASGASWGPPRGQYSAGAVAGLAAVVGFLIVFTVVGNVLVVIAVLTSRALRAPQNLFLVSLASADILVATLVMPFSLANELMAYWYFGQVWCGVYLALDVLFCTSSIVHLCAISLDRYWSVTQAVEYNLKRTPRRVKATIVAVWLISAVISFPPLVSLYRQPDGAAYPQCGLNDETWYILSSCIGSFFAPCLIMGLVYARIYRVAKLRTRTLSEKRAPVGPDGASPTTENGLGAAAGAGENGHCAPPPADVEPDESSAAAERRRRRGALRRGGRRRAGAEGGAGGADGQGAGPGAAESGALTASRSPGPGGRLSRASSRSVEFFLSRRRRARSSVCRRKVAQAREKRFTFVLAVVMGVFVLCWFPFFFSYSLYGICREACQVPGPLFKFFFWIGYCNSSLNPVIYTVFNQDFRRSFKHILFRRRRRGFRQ

Assay [10] addresses Muscarinic acetylcholine receptor M5 (Homo sapiens) (UniProt P08912).
The target of assay [11] is Mu-type opioid receptor (Homo sapiens) (UniProt P35372).
For assay [12], the target named is Beta-1 adrenergic receptor (Homo sapiens) (UniProt P08588).
For assay [13], the target named is T3, GABA-A receptor; anion channel (Rattus norvegicus) (UniProt O09028+P15431+P18506+P18508+P19969+P20236+P23574+P23576+P28471+P28473+P30191+P62813+P63079+P63138+Q91ZM7+Q9ES14).
Assay [14] addresses D(4) dopamine receptor (Homo sapiens) (UniProt P21917).
Assay [15] concerns the target T3, GABA-A receptor; anion channel (Rattus norvegicus). The source holds these as a separate data set.
In assay [16] the target is Kappa-type opioid receptor (Homo sapiens) (UniProt P41145).
In assay [17] the target is T4, 5-hydroxytryptamine receptor 2C (Homo sapiens) (UniProt P28335).
T4 sequence (whole entry): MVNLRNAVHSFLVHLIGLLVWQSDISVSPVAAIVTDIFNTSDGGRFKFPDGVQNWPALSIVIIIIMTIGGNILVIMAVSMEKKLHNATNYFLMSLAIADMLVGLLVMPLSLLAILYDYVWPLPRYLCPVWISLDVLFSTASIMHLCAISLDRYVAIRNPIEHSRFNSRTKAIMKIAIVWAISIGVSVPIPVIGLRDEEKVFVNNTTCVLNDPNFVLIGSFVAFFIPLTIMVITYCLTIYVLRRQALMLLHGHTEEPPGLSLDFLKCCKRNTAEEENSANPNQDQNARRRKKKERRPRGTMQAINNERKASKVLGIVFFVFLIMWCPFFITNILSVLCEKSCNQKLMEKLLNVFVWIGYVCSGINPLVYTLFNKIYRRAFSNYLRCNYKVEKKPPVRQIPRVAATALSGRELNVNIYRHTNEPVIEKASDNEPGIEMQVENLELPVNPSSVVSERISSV

In assay [18] the target is T5, Muscarinic acetylcholine receptor M4 (Homo sapiens) (UniProt P08173).
T5 sequence (whole entry): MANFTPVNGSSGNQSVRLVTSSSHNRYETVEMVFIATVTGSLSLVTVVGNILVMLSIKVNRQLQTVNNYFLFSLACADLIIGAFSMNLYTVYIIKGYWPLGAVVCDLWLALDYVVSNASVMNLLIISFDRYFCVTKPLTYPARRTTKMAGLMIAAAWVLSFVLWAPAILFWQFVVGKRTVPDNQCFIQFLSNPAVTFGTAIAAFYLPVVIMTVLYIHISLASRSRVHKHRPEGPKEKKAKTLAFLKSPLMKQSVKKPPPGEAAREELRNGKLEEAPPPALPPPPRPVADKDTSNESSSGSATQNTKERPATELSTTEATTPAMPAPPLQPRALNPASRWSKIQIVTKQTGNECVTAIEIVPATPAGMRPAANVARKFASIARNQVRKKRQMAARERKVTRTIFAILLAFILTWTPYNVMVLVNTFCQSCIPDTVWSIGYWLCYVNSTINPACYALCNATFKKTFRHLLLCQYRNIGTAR

Molecules are shown by their SMILES.

Sequence of Delta-type opioid receptor (Homo sapiens) (P41143 whole entry): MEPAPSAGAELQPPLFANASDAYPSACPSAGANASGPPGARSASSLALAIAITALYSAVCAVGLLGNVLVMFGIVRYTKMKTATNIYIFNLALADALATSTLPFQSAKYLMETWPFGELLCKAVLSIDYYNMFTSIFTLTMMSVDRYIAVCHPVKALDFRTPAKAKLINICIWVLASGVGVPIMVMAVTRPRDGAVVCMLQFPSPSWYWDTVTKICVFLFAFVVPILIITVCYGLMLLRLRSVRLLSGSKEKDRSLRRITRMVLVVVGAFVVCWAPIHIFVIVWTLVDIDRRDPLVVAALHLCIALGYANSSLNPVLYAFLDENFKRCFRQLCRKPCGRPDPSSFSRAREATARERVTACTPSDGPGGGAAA
Sequence of Muscarinic acetylcholine receptor M5 (Homo sapiens) (P08912 whole entry): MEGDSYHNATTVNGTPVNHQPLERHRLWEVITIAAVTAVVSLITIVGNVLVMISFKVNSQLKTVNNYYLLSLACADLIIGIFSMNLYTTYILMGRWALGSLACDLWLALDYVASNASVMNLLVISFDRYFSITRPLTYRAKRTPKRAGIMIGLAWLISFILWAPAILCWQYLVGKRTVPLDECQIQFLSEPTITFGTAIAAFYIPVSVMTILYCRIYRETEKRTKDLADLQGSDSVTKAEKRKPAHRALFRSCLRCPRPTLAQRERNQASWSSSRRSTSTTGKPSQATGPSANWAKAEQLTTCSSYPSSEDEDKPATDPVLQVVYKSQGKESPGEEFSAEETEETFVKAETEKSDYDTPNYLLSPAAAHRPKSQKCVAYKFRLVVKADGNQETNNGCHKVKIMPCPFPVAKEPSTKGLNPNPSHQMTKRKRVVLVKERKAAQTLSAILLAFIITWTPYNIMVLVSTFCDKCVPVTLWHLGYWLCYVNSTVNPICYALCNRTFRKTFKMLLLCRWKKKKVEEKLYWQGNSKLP
Sequence of Beta-1 adrenergic receptor (Homo sapiens) (P08588 whole entry, looked up): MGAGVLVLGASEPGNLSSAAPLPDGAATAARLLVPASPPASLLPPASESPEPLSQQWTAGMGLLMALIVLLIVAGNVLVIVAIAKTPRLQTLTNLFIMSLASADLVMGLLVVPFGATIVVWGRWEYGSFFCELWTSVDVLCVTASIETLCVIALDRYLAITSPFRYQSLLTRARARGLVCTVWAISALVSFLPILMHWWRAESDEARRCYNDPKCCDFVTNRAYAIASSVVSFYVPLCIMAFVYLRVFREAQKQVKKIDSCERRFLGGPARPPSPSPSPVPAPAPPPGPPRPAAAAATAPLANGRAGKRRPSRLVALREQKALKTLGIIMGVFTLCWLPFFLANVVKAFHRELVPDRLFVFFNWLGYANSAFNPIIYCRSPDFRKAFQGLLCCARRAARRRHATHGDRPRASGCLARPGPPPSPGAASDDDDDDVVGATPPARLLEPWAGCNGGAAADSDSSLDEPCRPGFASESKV
Sequence of 5-hydroxytryptamine receptor 3A (Homo sapiens) (P46098 whole entry): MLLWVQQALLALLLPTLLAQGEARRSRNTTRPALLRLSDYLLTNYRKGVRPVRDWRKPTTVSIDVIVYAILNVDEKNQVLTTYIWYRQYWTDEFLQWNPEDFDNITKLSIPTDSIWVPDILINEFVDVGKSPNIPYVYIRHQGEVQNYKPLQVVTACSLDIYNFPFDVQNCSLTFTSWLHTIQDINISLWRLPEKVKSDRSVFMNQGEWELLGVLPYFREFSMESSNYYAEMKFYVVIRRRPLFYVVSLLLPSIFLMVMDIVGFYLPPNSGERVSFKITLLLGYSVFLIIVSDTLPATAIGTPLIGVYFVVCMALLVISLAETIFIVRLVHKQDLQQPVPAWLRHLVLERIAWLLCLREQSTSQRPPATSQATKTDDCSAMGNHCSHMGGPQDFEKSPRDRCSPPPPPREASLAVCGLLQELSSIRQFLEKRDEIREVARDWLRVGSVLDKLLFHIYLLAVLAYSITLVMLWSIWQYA
Sequence of Mu-type opioid receptor (Homo sapiens) (P35372 whole entry): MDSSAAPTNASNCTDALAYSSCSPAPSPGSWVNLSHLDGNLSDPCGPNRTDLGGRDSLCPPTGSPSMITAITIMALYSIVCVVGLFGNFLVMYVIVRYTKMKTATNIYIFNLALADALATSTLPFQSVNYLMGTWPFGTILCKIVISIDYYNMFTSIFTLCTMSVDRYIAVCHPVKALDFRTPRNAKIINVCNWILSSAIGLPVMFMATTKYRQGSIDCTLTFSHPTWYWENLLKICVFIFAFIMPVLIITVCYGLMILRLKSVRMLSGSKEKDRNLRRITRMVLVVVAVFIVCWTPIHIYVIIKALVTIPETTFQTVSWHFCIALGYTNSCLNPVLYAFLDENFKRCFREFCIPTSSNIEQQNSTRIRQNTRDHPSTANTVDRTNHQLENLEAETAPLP
Sequence of 5-hydroxytryptamine receptor 1B (Homo sapiens) (P28222 whole entry): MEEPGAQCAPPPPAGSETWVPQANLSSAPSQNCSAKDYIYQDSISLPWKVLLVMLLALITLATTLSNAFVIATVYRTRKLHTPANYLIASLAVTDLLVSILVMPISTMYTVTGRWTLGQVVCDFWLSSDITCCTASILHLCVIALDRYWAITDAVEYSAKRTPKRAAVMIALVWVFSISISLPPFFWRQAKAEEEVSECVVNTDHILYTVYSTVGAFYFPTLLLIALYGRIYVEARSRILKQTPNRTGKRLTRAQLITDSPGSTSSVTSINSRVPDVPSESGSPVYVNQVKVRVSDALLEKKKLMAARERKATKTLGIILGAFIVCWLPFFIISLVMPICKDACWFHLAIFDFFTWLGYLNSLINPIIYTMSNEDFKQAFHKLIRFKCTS
Sequence of 5-hydroxytryptamine receptor 2A (Homo sapiens) (P28223 whole entry): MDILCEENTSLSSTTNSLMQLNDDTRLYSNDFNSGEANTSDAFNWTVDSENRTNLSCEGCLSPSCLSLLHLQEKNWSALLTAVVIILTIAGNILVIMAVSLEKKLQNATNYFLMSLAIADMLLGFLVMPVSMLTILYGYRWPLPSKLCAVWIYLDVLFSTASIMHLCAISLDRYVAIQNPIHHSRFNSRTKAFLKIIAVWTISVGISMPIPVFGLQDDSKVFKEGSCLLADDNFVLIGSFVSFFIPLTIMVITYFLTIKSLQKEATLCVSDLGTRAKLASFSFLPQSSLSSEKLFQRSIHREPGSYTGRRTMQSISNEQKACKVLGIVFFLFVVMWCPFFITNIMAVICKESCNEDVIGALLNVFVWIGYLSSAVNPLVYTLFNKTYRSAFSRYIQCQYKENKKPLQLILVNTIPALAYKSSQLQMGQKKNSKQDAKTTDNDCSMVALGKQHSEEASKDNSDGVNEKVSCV
Sequence of D(4) dopamine receptor (Homo sapiens) (P21917 whole entry): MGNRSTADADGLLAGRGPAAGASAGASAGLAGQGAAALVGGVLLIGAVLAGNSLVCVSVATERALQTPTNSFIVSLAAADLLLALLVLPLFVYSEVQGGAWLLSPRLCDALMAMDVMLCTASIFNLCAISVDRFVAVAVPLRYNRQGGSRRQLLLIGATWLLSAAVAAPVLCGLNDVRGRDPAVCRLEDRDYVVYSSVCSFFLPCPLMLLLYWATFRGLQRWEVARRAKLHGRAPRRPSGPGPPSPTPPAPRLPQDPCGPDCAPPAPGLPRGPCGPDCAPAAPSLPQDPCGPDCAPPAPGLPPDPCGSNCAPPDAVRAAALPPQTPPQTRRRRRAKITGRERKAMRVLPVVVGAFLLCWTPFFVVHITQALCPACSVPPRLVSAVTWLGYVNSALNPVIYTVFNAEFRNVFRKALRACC
Sequence of 5-hydroxytryptamine receptor 5A (Homo sapiens) (P47898 whole entry): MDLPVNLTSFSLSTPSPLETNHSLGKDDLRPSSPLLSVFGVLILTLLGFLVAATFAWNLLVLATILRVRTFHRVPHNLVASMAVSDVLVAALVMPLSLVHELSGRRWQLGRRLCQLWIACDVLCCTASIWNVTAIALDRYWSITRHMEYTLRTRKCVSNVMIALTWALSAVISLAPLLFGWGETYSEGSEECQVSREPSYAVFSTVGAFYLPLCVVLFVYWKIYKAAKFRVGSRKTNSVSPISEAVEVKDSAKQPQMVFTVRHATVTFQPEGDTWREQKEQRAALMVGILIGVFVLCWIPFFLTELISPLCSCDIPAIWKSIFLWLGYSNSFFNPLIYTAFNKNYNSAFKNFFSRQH
Sequence of Sigma intracellular receptor 2 (Q5BJF2 whole entry): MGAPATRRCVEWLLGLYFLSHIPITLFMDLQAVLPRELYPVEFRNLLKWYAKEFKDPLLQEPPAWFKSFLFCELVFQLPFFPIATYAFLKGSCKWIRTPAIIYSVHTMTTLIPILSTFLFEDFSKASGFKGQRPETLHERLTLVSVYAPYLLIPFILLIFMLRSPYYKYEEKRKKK
Sequence of Kappa-type opioid receptor (Homo sapiens) (P41145 whole entry): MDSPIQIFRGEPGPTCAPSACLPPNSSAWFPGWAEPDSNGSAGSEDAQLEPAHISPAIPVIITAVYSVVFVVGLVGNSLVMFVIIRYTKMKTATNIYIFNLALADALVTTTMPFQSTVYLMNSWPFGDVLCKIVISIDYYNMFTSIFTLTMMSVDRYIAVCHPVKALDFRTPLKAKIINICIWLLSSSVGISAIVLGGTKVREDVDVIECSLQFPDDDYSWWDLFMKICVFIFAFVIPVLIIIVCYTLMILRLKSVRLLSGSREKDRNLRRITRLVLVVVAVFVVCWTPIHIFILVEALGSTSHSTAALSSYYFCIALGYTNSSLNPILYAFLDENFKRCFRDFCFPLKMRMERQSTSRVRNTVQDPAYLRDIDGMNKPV

As for `Cc1c(N2CCNCC2)nc2ccc(Br)cc2c1C(=O)NC[C@H](CCC(=O)O)c1ccccc1Cl` [BAY-403], the inhibition in assay [1] is 38%; in assay [2], 36%; in [3] it was 13.7%; in [4] it was 86%; in assay [5], 65%; in [6], 15.2%. For the same compound, the inhibition in [7] is 60%; in [8] it was 11.3%; in [9], 5.7%; in assay [10], -0.13%; in [11], 40.9%; in [12] it was 12.6%. Further, the inhibition in [13] was 38.3%; in assay [14], 5.89%; in [15] it was -0.16%; in assay [16], 17.7%; in assay [17], 12.7%; in [18] it was 16.2%.
Turning to `Cc1c(N2CCCC2)nc2ccc(Br)cc2c1C(=O)NC[C@H](CCC(=O)O)c1ccccc1Cl` [BAY-6672], the inhibition is 5.24% in assay [1]; 15.4% in assay [2]; -0.57% in assay [3]; 37.7% in assay [4]; -4.59% in assay [5]; -2.2% in assay [6]. The inhibition in assay [7] was 8.52%; in [8] it was -5.32%; in assay [9], 16.1%; in assay [10], 9.92%; in [11], 11.7%; in [12] it was 15.7%. Also, the inhibition is 5.06% in assay [13]; 1.48% in [14]; 8.16% in assay [15]; 15.4% in [16]; 2.98% in assay [17]; 19.4% in assay [18].

The record behind these values is ChEMBL document CHEMBL4630901 (2021).
